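Cells were grown in 96-well plates and exposed to each compound for 48 hours at five concentrations; endpoints were interpolated linearly between bracketing concentrations, or set to the highest concentration if not reached. At the GI50, growth is halved.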 Calls of active or inactive are those of the source. Rule as the data show it: active = GI50 up to about 1.1 µM and inactive = higher.
What was measured:
Assay in all cases: NCI tumour cell line growth inhibition, 48 h
[1] = tested on: 786-0
[2] = tested on: A498
[3] = tested on: A549
[4] = tested on: ACHN
[5] = tested on: CAKI-1
[6] = tested on: CCRF-CEM
[7] = tested on: COLO 205
[8] = tested on: DU-145
[9] = tested on: HCC 2998
[10] = tested on: HCT-116
[11] = tested on: HCT-15
[12] = tested on: Hs-578T
[13] = tested on: IGROV-1
[14] = tested on: KM12
[15] = tested on: LOX IMVI
[16] = tested on: M14
[17] = tested on: MCF7
[18] = tested on: MDA-MB-231
[19] = tested on: MDA-N
[20] = tested on: MOLT-4
[21] = tested on: NCI-H23
[22] = tested on: NCI-H460
[23] = tested on: NCI/ADR-RES
[24] = tested on: OVCAR-3
[25] = tested on: OVCAR-5
[26] = tested on: PC-3
[27] = tested on: RXF 393
[28] = tested on: SF-268
[29] = tested on: SF-295
[30] = tested on: SF-539
[31] = tested on: SK-MEL-2
[32] = tested on: SK-OV-3
[33] = tested on: SN12C
[34] = tested on: SNB-19
[35] = tested on: SNB-75
[36] = tested on: T47D
[37] = tested on: TK-10
[38] = tested on: U-251
[39] = tested on: UACC-257
[40] = tested on: UO-31
[41] = tested on: EKVX
[42] = tested on: HL-60
[43] = tested on: HOP-62
[44] = tested on: HT-29
[45] = tested on: K562
[46] = tested on: MDA-MB-435
[47] = tested on: Malme-3M
[48] = tested on: NCI-H226
[49] = tested on: NCI-H522
[50] = tested on: OVCAR-4
[51] = tested on: OVCAR-8
[52] = tested on: RPMI-8226
[53] = tested on: SK-MEL-28
[54] = tested on: SK-MEL-5
[55] = tested on: SR
[56] = tested on: SW-620
[57] = tested on: UACC-62
[58] = tested on: HOP-92

For CC(=O)OCC1OC(N2C(c3ccccc3)=CC(c3cccs3)C(C#N)=C2S)C(OC(C)=O)C(OC(C)=O)C1OC(C)=O (centres undefined), the GI50 [1] was 2.55 µM (inactive), the GI50 [2] was 10.5 µM (inactive) and the GI50 [3] was > 100 µM (inactive). For the same compound, the GI50 [4] was > 100 µM (inactive), the GI50 [5] was > 100 µM (inactive) and the GI50 [6] was > 100 µM (inactive). The GI50 [7] was > 100 µM (inactive), the GI50 [8] was > 100 µM (inactive) and the GI50 [9] was > 100 µM (inactive). For the same compound, the GI50 [10] was 2.25 µM (inactive), the GI50 [11] was greater than 100 µM and the GI50 [12] was 2.47 µM (inactive). For the same compound, the GI50 [13] was > 100 µM (inactive), the GI50 [14] was > 100 µM (inactive) and the GI50 [15] was > 100 µM (inactive). For the same compound, the GI50 [16] was 1.84 µM (inactive), the GI50 [17] was > 100 µM (inactive) and the GI50 [18] was 6.03 µM (inactive). The GI50 [19] was > 100 µM (inactive), the GI50 [20] was > 100 µM (inactive) and the GI50 [21] was 5.18 µM (inactive). The GI50 [22] was > 100 µM (inactive), the GI50 [23] was > 100 µM (inactive) and the GI50 [24] was > 100 µM (inactive). The GI50 [25] was 4.92 µM (inactive), the GI50 [26] was > 100 µM (inactive) and the GI50 [27] was 3.43 µM (inactive). The GI50 [28] was 4.49 µM (inactive), the GI50 [29] was > 100 µM (inactive) and the GI50 [30] was 2.34 µM (inactive). The GI50 [31] was > 100 µM (inactive), the GI50 [32] was > 100 µM (inactive) and the GI50 [33] was > 100 µM (inactive). For the same compound, the GI50 [34] was 47.3 µM (inactive), the GI50 [35] was 4.43 µM (inactive) and the GI50 [36] was > 100 µM (inactive). The GI50 [37] was > 100 µM (inactive), the GI50 [38] was 10.3 µM (inactive) and the GI50 [39] was > 100 µM (inactive). The GI50 [40] was > 100 µM (inactive).

In the case of N#CC(=N)c1ncn(CCO)c1NC(=O)C(F)(F)F, the GI50 [1] is reported as > 100 µM (inactive), the GI50 [2] is reported as > 100 µM (inactive) and the GI50 [3] is reported as > 100 µM (inactive). For the same compound, the GI50 [4] was > 100 µM (inactive), the GI50 [5] was > 100 µM (inactive) and the GI50 [6] was > 100 µM (inactive). The GI50 [7] was > 100 µM (inactive), the GI50 [8] was > 100 µM (inactive) and the GI50 [41] was > 100 µM (inactive). For the same compound, the GI50 [9] was > 100 µM (inactive), the GI50 [10] was > 100 µM (inactive) and the GI50 [11] was greater than 100 µM. For the same compound, the GI50 [42] was > 100 µM (inactive), the GI50 [43] was > 100 µM (inactive) and the GI50 [44] was > 100 µM (inactive). For the same compound, the GI50 [12] was > 100 µM (inactive), the GI50 [13] was > 100 µM (inactive) and the GI50 [45] was > 100 µM (inactive). The GI50 [14] was > 100 µM (inactive), the GI50 [15] was > 100 µM (inactive) and the GI50 [16] was > 100 µM (inactive). For the same compound, the GI50 [18] was > 100 µM (inactive), the GI50 [46] was > 100 µM (inactive) and the GI50 [19] was > 100 µM (inactive). The GI50 [47] was > 100 µM (inactive), the GI50 [48] was > 100 µM (inactive) and the GI50 [21] was > 100 µM (inactive). The GI50 [22] was > 100 µM (inactive), the GI50 [49] was > 100 µM (inactive) and the GI50 [23] was > 100 µM (inactive). For the same compound, the GI50 [24] was > 100 µM (inactive), the GI50 [50] was > 100 µM (inactive) and the GI50 [25] was > 100 µM (inactive). For the same compound, the GI50 [51] was > 100 µM (inactive), the GI50 [26] was > 100 µM (inactive) and the GI50 [52] was > 100 µM (inactive). The GI50 [27] was > 100 µM (inactive), the GI50 [28] was > 100 µM (inactive) and the GI50 [29] was > 100 µM (inactive). The GI50 [30] was > 100 µM (inactive), the GI50 [53] was > 100 µM (inactive) and the GI50 [31] was > 100 µM (inactive). The GI50 [54] was > 100 µM (inactive), the GI50 [32] was > 100 µM (inactive) and the GI50 [33] was > 100 µM (inactive). The GI50 [34] was > 100 µM (inactive), the GI50 [35] was > 100 µM (inactive) and the GI50 [55] was > 100 µM (inactive). For the same compound, the GI50 [56] was > 100 µM (inactive), the GI50 [36] was > 100 µM (inactive) and the GI50 [37] was > 100 µM (inactive). For the same compound, the GI50 [38] was > 100 µM (inactive), the GI50 [39] was > 100 µM (inactive) and the GI50 [57] was > 100 µM (inactive).

For CCCCCCCCCCCCc1ccc(S(=O)(=O)O)cc1, the GI50 [1] was > 100 µM (inactive), the GI50 [2] was 26.8 µM (inactive) and the GI50 [3] was > 100 µM (inactive). The GI50 [4] was > 100 µM (inactive), the GI50 [5] was > 100 µM (inactive) and the GI50 [6] was > 100 µM (inactive). For the same compound, the GI50 [7] was > 100 µM (inactive), the GI50 [8] was > 100 µM (inactive) and the GI50 [41] was > 100 µM (inactive). The GI50 [9] was > 100 µM (inactive), the GI50 [10] was > 100 µM (inactive) and the GI50 [11] was greater than 100 µM. For the same compound, the GI50 [42] was > 100 µM (inactive), the GI50 [43] was > 100 µM (inactive) and the GI50 [58] was 88.1 µM (inactive). For the same compound, the GI50 [44] was > 100 µM (inactive), the GI50 [12] was > 100 µM (inactive) and the GI50 [13] was 11.5 µM (inactive). The GI50 [45] was > 100 µM (inactive), the GI50 [14] was > 100 µM (inactive) and the GI50 [15] was 49.5 µM (inactive). For the same compound, the GI50 [16] was > 100 µM (inactive), the GI50 [17] was 98.9 µM (inactive) and the GI50 [18] was > 100 µM (inactive). For the same compound, the GI50 [46] was > 100 µM (inactive), the GI50 [19] was > 100 µM (inactive) and the GI50 [20] was > 100 µM (inactive). For the same compound, the GI50 [47] was > 100 µM (inactive), the GI50 [48] was 90.6 µM (inactive) and the GI50 [21] was > 100 µM (inactive). The GI50 [22] was > 100 µM (inactive), the GI50 [23] was > 100 µM (inactive) and the GI50 [24] was > 100 µM (inactive). The GI50 [50] was > 100 µM (inactive), the GI50 [25] was > 100 µM (inactive) and the GI50 [51] was > 100 µM (inactive). For the same compound, the GI50 [26] was > 100 µM (inactive), the GI50 [52] was > 100 µM (inactive) and the GI50 [27] was > 100 µM (inactive). The GI50 [28] was > 100 µM (inactive), the GI50 [29] was > 100 µM (inactive) and the GI50 [30] was > 100 µM (inactive). The GI50 [53] was > 100 µM (inactive), the GI50 [54] was > 100 µM (inactive) and the GI50 [32] was > 100 µM (inactive). For the same compound, the GI50 [33] was > 100 µM (inactive), the GI50 [34] was > 100 µM (inactive) and the GI50 [35] was > 100 µM (inactive). The GI50 [56] was > 100 µM (inactive), the GI50 [36] was > 100 µM (inactive) and the GI50 [37] was > 100 µM (inactive). For the same compound, the GI50 [38] was 89.7 µM (inactive), the GI50 [39] was 64.6 µM (inactive) and the GI50 [57] was 34.4 µM (inactive). The GI50 [40] was > 100 µM (inactive).

Reference: ChEMBL document CHEMBL1201862, “PubChem BioAssay data set” (2004)
